The values that follow come from ChEMBL document CHEMBL3612058, “Synthesis and biological evaluation of a new series of 2-amino-3-aroyl thiophene derivatives as agonist allosteric modulators of the A1 adenosine receptor. A position-dependent effect study” (Eur J Med Chem, 2015).

Active and inactive are the calls of the source. The calls are words filed in the database; no cut-off is given here.

The target of test [1] is T1, Adenosine receptor A1 (Homo sapiens) (UniProt P30542).
T1 sequence (whole entry): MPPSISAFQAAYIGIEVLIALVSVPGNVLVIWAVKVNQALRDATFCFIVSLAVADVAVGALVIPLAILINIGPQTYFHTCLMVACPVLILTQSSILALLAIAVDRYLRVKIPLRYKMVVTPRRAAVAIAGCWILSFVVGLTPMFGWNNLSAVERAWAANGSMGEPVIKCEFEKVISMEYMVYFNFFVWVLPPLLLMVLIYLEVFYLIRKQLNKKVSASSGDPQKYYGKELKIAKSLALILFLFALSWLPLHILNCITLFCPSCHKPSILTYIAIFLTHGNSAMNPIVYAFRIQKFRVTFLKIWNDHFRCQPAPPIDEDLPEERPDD
Briefly: Positive allosteric enhancement of human cloned adenosine A1 receptor expressed in CHO cells assessed as inhibition of forskolin-induced cAMP accumulation at 100 nM using [3H]-cAMP by scintillation counting relative to control in presence of 1 pM of CCPA. In kind it is functional, cell-based. For orientation: cAMP levels reflect the balance of adenylyl cyclase and phosphodiesterase activity.

Test [2] concerns the target T1, Adenosine receptor A1 (Homo sapiens). Briefly: Displacement of [3H]DPCPX from human adenosine A1 receptor expressed in CHO cells at 10 uM after 120 mins by scintillation counting. In kind it is cell-based. (In general: Displacement assays read how much labelled ligand stays bound in the presence of the test substance.)
A short description of test [3]: Displacement of [3H]-ZM241385 from human adenosine A2 receptor expressed in CHO cells at 10 uM after 120 mins by scintillation counting. In kind it is cell-based.
Test [4] deals with T2, Adenosine receptor A3 (Homo sapiens) (UniProt P0DMS8).
T2 sequence (whole entry): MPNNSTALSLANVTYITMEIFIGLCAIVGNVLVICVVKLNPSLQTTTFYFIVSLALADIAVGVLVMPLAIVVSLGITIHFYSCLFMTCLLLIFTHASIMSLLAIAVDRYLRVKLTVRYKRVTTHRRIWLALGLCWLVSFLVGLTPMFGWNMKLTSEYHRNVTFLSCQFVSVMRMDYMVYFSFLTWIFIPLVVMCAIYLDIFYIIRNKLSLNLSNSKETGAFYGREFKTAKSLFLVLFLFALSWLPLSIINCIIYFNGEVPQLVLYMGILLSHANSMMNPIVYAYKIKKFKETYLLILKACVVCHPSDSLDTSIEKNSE
Briefly: Displacement of [3H]-MRE-3008-F20 from human adenosine A3 receptor expressed in CHO cells at 10 uM after 120 mins by scintillation counting. In kind it is cell-based.

For test [5], the target named is T1, Adenosine receptor A1 (Homo sapiens). Briefly: Binding affinity to human adenosine A1 receptor expressed in CHO cells assessed as fold Bmax shift of [3H]-CCPA at 10 uM after 90 mins by [3H]-CCPA binding assay relative to control. The test is classed as cell-based.
For test [6] the target is unchanged. Briefly: Binding affinity to human adenosine A1 receptor expressed in CHO cells assessed as fold Ki shift of CCPA at 10 uM after 90 mins by [3H]-CCPA displacement assay relative to control. In kind it is cell-based.
The target is the same in test [7]. Briefly: Effect on association binding rate constant of [3H]-NECA to human adenosine A1 receptor expressed in CHO cells at 1 uM after 45 mins by scintillation spectrometry analysis. In kind it is cell-based.
Test [8] shares this target. Briefly: Effect on dissociation binding rate constant of [3H]-NECA to human adenosine A1 receptor expressed in CHO cells at 1 uM after 45 mins by scintillation spectrometry analysis relative to control. The test is classed as cell-based.
Test [9] has the same target. Briefly: Increase of [3H]-NECA affinity to human adenosine A1 receptor expressed in CHO cells at 1 uM after 45 mins by scintillation spectrometry analysis relative to control. The test is classed as cell-based.
The target is the same in test [10]. Briefly: Positive allosteric enhancement of human cloned adenosine A1 receptor expressed in CHO cells assessed as inhibition of forskolin-induced cAMP accumulation at 10 uM using [3H]-cAMP by scintillation counting relative to control. The test is classed as functional, cell-based.
The target is the same in test [11]. Briefly: Ratio of PD81723 to compound for positive allosteric enhancement of human cloned adenosine A1 receptor expressed in CHO cells assessed as inhibition of forskolin-induced cAMP accumulation at 10 uM using [3H]-cAMP by scintillation counting. In kind it is functional, cell-based.
For test [12], the system named is Mus musculus. Briefly: Antinociceptive effect in CD1 mouse assessed as inhibition of formalin-induced pain behavior in paw at 0.3 mg/kg, ip administered 15 mins before formalin challenge measured up to 45 mins relative to control. In kind it is functional.
For test [13], the system named is Mus musculus. Briefly: Antinociceptive effect in CD1 mouse assessed as inhibition of formalin-induced pain behavior in paw at 3 mg/kg, ip administered 15 mins before formalin challenge measured up to 45 mins relative to control. In kind it is functional.

The term inhibition denotes the drop in the measured response relative to a control, in per cent. In the case of `Cc1sc(N)c(C(=O)c2cccc(C(F)(F)F)c2)c1C`, the inhibition was 21% in test [1], below 10% in test [2], below 10% in test [3] and below 10% in test [4]. Besides, the fold change (FC) in test [5] was determined as 1.3; in [6] it was 1.4. For the same compound, the result in test [7], in [8] and in test [9] was inactive.

By inhibition in vivo is commonly meant the relative decrease from the control value, in per cent. As to `Nc1sc(-c2ccc(Cl)cc2)c(Cc2ccc(Cl)cc2)c1C(=O)c1ccc(Cl)cc1`, the inhibition was 81% in test [10]; 84% in test [1]; below 10% in [2]; below 10% in test [3]; below 10% in test [4]. Besides, in [11], the Ratio turned out to be 3. Besides, the fold change (FC) in test [5] came to 11; in [6], 11.7; in test [8] it was 2.5; in test [9], 2.3. Besides, the outcome in [7] was inactive. In addition, the inhibition in vivo at 0.3 mg/kg in the test with Mus musculus [12] was 49%. The inhibition in vivo at 3 mg/kg in the test with Mus musculus [13] came to 82%.
